Test results reported in PubChem BioAssay (NCI).
Where “and” joins values, the source holds several entries; their conditions need not be identical. Equal values may be shown once.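 Step 1: Grow cells in 96-well plates. Step 2: Expose to compound for 48 hours at 5 concentrations. Step 3: Interpolate endpoints linearly; if unreached, use highest concentration. GI50: concentration for 50% inhibition of growth. TGI: total growth inhibition.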 Where a SMILES comes first, the peptide text is derived from it. [ ]: non-standard residue; d: D form. The star is where a group is joined. Phe(4-NO2) = N[CH](Cc1ccc([N+](=O)[O-])cc1)C(=O)O; Boc = CC(C)(C)OC(=O)*

How the values were obtained:
Experiment in all cases: inhibition of tumour cell growth, NCI panel, 48 h
A549 NSCLC = test system: A549 NSCLC
ACHN renal = test system: ACHN renal
DMS 273 small cell lung = test system: DMS 273 small cell lung
XF 498 CNS = test system: XF 498 CNS
LXFL 529 NSCLC = test system: LXFL 529 NSCLC
DMS 114 small cell lung = test system: DMS 114 small cell lung
KM20L2 colon = test system: KM20L2 colon
SNB-78 CNS = test system: SNB-78 CNS
M19-MEL melanoma = test system: M19-MEL melanoma

Row | SMILES | TGI (A549 NSCLC) | TGI (ACHN renal) | other results
1 | N#Cc1ccc(-n2c3ccccc3c3ccc4c(c32)C(=O)C=CC4=O)cc1 | 38.4 µM | 3.01 µM | 
2 | Cc1ccc2c(c1)-c1nc(N)c(C#N)c(-c3ccccc3)c1CCS2(=O)=O | > 100 µM | > 100 µM | 
3 | CC1=C(C(=O)Nc2ccccc2)C2(CCCCC2)C(C#N)=C(SCC(=O)Nc2ccc(Br)cc2)N1 | 22.3 µM | 19.8 µM | 
4 | O=C1Oc2cc(O)cc(/C=C/c3ccc(O)cc3)c2[C@@]12c1c(O)cc(O)cc1OC2c1cccc(O)c1 (some centres not stated) | > 100 µM | > 100 µM | 
5 | COc1ccccc1C(=O)c1c(NCc2ccccc2)c(=O)c1=O |  | > 100 µM | 
6 | CC(C)NC(=O)CN1CCN(c2c(O)c3c(c(O)c2Cl)C(=O)C=CC3=O)CC1 | 20.3 µM | 4.9 µM | 
7 | COI1NC(=O)c2ccccc21 | > 100 µM | > 100 µM | 
8 | CCN(CC)C(=O)C(C)n1cc(C)c(=O)[nH]c1=O (configuration not stated) | > 100 µM | > 100 µM | TGI (DMS 273 small cell lung): > 100 µM; TGI (XF 498 CNS): > 100 µM; TGI (LXFL 529 NSCLC): > 100 µM; TGI (DMS 114 small cell lung): > 100 µM; TGI (KM20L2 colon): > 100 µM; TGI (SNB-78 CNS): > 100 µM; TGI (M19-MEL melanoma): > 100 µM
9 | N#Cc1c(N)nc(Sc2ccccc2N)c(C#N)c1-c1ccc(Cl)cc1 | > 75.2 µM | 39.5 µM | 
10 | Cc1nc2c(=O)n(C)ncc2[nH]1 | > 100 µM | > 100 µM | 
11 | CCC(=O)Nc1ccc(N2C(=O)C(Cl)C2c2ccc(SC)cc2)cc1 (configuration not stated) | > 100 µM | > 100 µM | 
12 | CC(=O)c1cc2ccccc2oc1=O | > 100 µM | > 100 µM | 
13 | Cn1c(-c2cccc([N+](=O)[O-])c2)[n+](C)c2ccccc21 | > 100 µM | > 100 µM | 
14 | COC(=O)C1OC(O[C@H]2CC[C@]3(C)[C@H]4CC=C5[C@@H]6CC(C)(C)CC[C@]6(C(=O)OC6OCC(O)C(O)C6OC6OC(C)C(OC7OCC(O)C(O)C7O)C(O)C6O)CC[C@@]5(C)[C@]4(C)CC[C@H]3C2(C)C)C(O)C(O)C1O (some centres not stated) | 33 µM and 41 µM |  | 
15 | COc1cc(/C=C/C(=O)C2(C(=O)/C=C/c3cc(OC)c(OC)c(OC)c3)CCCCC2)cc(OC)c1OC | > 100 µM | > 100 µM | 
16 | CN(C)c1nc(Cl)c2c(-c3ccccc3)c(-c3ccccc3)oc2n1 | > 100 µM | > 100 µM | 
17 | Cc1cc(=O)oc2c(CNC(Cc3ccccc3)C(=O)O)c(O)ccc12 (configuration not stated) | > 100 µM | > 100 µM | 
18 | C[C@@H]1CC[C@@H]2[C@@H](C1)O[C@@H]([C@H](C)OCc1ccccc1)SC2(C)C | > 100 µM | 37.2 µM | 
19 | CCOC(=O)c1c(N2CCOCC2)[nH]c(=O)c(C(c2ccco2)c2c(O)c(C(=O)OCC)c(N3CCOCC3)[nH]c2=O)c1O | > 100 µM | > 100 µM | 

Row | SMILES | TGI (A549 NSCLC) | TGI (ACHN renal) | other results
20 | O=[N+]([O-])c1cc(-c2nc(-c3ccccc3)c(-c3ccccc3)[nH]2)c(O)c([N+](=O)[O-])c1 | > 100 µM | 46.7 µM | 
21 | O=C1CSC(c2cccc([N+](=O)[O-])c2)N1c1ccc(-n2c(-c3ccccc3)nc3ccccc3c2=O)cc1 (configuration not stated) | > 100 µM | > 100 µM | 
22 | COc1cc(Cc2nccc3cc(OC)c(OC)cc23)c(N=NN(C)C)cc1OC | 77.2 µM | > 100 µM | 
23 | CC(=O)OCc1ccc2oc(=O)c(C(=O)Oc3ccccc3)cc2c1 | > 100 µM | > 100 µM | 
24 | COC(=O)c1ccccc1C1CN=NC12Cc1cc(C)ccc1C2=O (configuration not stated) | > 100 µM | > 100 µM | 
25 | Cc1ccc(S(=O)(=O)NNCNC(=O)c2ccccc2)cc1 | > 100 µM | > 100 µM | 
26 | COc1ccc(C(=O)/C=C/c2cc(O)c(O)c(F)c2F)c(OC)c1 | > 100 µM | > 100 µM | 
27 | O=C(NNC(=S)NC1CCCCC1)c1csc(NC(=S)NC2CCCCC2)n1 | 23.3 µM | 15.3 µM | 
28 | COc1cc(CNNC(N)=S)cc(OC)c1OC | > 100 µM | > 100 µM | 
29 | CNC(=O)CCC(NC(=O)OC(C)(C)C)C(=O)NC(Cc1ccc([N+](=O)[O-])cc1)C(=O)NCC(=O)NC (configuration not stated) (Boc-Glu(NHMe)-[Phe(4-NO2)]-Gly-NHMe; configuration not given here) | > 100 µM | > 100 µM | 
30 | Nn1c(Cc2ccc([N+](=O)[O-])cc2)n[nH]c1=O | > 100 µM | > 100 µM | 
31 | OC(c1cc(C23CC4CC(CC(C4)C2)C3)nc2c(Cl)cc(Cl)cc12)C1CCCCN1 (configuration not stated) | 3.08 µM | 2.94 µM | 
32 | CCC(C#N)NCc1cccc(CNC(C#N)CC)c1 (configuration not stated) | > 100 µM | > 100 µM | 
33 | C(=C\c1ccco1)/c1cccc(/C=C/c2ccco2)n1 | > 50 µM | > 50 µM | 
34 | COc1cc(/C=c2\sc3n(c2=O)C(c2ccc(Cl)cc2)C2=C(CCCC2C)N=3)cc(OC)c1OC (configuration not stated) | > 100 µM | > 100 µM | 
35 | CCCCCCCCCCCCC(O)[C@H]1CC[C@H](C(O)CCCCCC(=O)CCCCC2CC(C(C)=O)C(=O)O2)O1 (some centres not stated) | > 100 µM | 70.4 µM | GI50 (A549 NSCLC): 2.33 µM; GI50 (ACHN renal): 1.68 µM
36 | O=C(O)CN1C(=O)C(Cc2ccc(O)cc2)N=C(c2cccc(O)c2)c2ccccc21 (configuration not stated) | > 100 µM | > 100 µM | 
37 | COc1ccc(/C=C2\CCC(C)C3=C2N=c2s/c(=C/c4cccc(Br)c4)c(=O)n2C3c2ccc(OC)c(OC)c2)cc1OC (configuration not stated) | > 100 µM | > 100 µM | 
38 | CC1(C)CCC[C@]2(C)[C@H]3[C@H](C#N)c4cc(O)c(O)cc4O[C@@]3(C)CC[C@@H]12 |  | > 10 µM | 
